Assay results as given in the supplement of paper PMC10307832.

Tests used:
Assay in all cases: relative viability (nuclei count vs DMSO), 5 days (fraction); higher = more cells survive
[1] = compound: CC(C)C[C@H](NC(=O)[C@H](Cc1ccccc1)NC(=O)c1cnccn1)B(O)O [Bortezomib] + C[C@]1(O)C[C@@H](c2nc(-c3ccc4ccc(-c5ccccc5)nc4c3)c3c(N)nccn32)C1 [Linsitinib] (partner 1 µM)
In short: (§1)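 Lung cancer cell lines were pin-tool dosed in 1536-well plates on the day after seeding, with either a lone drug or a fixed anchor-drug dose plus five library-drug doses (not always all listed) in √10 steps. Nuclei were counted on 4× images after 5 days. Relative viability is the ratio of treated-well to vehicle-well nuclei counts, with each value a median of duplicate plates.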

[2] = compound: CC1=CC(=NN1)NC2=CC(=NC(=N2)/C=C/C3=CC=CC=C3)N4CCN(CC4)C + CS(=O)(=O)N1CCN(Cc2cc3nc(-c4cccc5[nH]ncc45)nc(N4CCOCC4)c3s2)CC1 [Pictilisib] (partner 1 µM)
In short: as §1

[3] = compound: COC1=CC(c2cc3ccccc3[nH]2)=N/C1=C\c1[nH]c(C)cc1C [Obatoclax] + CC1(C)CCC(c2ccc(Cl)cc2)=C(CN2CCN(c3ccc(C(=O)NS(=O)(=O)c4ccc(N[C@H](CCN5CCOCC5)CSc5ccccc5)c(S(=O)(=O)C(F)(F)F)c4)cc3)CC2)C1 [Navitoclax] (partner 0.5 µM)
In short: as §1

[4] = compound: COC1=CC(c2cc3ccccc3[nH]2)=N/C1=C\c1[nH]c(C)cc1C [Obatoclax] + C[C@]1(O)C[C@@H](c2nc(-c3ccc4ccc(-c5ccccc5)nc4c3)c3c(N)nccn32)C1 [Linsitinib] (partner 1 µM)
In short: as §1

Cell Line	relative viability ([1]; first compound 0.0002 µM)	relative viability ([1]; first compound 0.000632 µM)	relative viability ([1]; first compound 0.002 µM)	relative viability ([1]; first compound 0.006325 µM)	relative viability ([1]; first compound 0.02 µM)	relative viability ([2]; first compound 0.08 µM)	relative viability ([2]; first compound 0.253 µM)	relative viability ([2]; first compound 0.8 µM)	relative viability ([2]; first compound 2.53 µM)	relative viability ([2]; first compound 8 µM)	relative viability ([3]; first compound 0.01 µM)	relative viability ([3]; first compound 0.03162 µM)	relative viability ([3]; first compound 0.1 µM)	relative viability ([3]; first compound 0.3162 µM)	relative viability ([3]; first compound 1 µM)	relative viability ([4]; first compound 0.01 µM)	relative viability ([4]; first compound 0.03162 µM)	relative viability ([4]; first compound 0.1 µM)	relative viability ([4]; first compound 0.3162 µM)	relative viability ([4]; first compound 1 µM)
LXF-289	0.946	0.968	1	0.0941	0.0652	0.802	0.783	0.74	0.442	0.277	0.912	0.883	0.926	0.905	0.96	0.903	0.969	0.961	0.93	0.994
NCI-H23		0.574	0.586	0.276	0.114	0.462	0.48	0.382	0.296	0.134	0.907	0.733	0.847	0.537	0.813	0.588	0.598	0.647	0.606	0.598
NCI-H322M	0.906		0.999	0.831	0.294	0.456	0.52	0.463	0.219	0.242	1.16	1.26	1.29	1.14	1.39	0.943	0.958	0.941	0.893	0.89
NCI-H441	0.497	0.41	0.406	0.343	0.103	0.463	0.554	0.265	0.172	0.0803	0.775	0.535	0.832	0.546	0.259	0.683	0.551	0.394	0.52	0.435
NCI-H460	0.718	0.772	0.91	0.0249	0.0133	0.32	0.427	0.383	0.221	0.036	1.08	1.2	1.12	0.034	0.0115	0.719	0.864	0.582	0.0258	0.0195
NCI-H520	1.12	0.991	0.483	0.137	0.143	0.335	0.306	0.251	0.156	0.127	1.1	1.16	1.07	0.795	0.288	0.925	0.891	1.12	0.583	0.262
NCI-H596	0.894	0.813	1.09	0.233	0.18	0.406	0.417	0.388	0.253	0.271	0.898	0.74	0.775	0.519	0.583	1.07	0.945	0.809	0.66	0.731
NCI-H647	1.09	1.28	1.12	0.0274	0.0402	0.438	0.48	0.377	0.0644	0.051	1.11	0.974	0.633	0.477	0.229	1.14	1.13	1.11	0.317	0.254
NCI-H727	0.354	0.289	0.408	0.189	0.0878	0.357	0.298	0.34	0.199	0.153	0.416	0.487	0.409	0.451	0.262	0.372	0.28	0.343	0.267	0.231
NCI-H838	0.995	1.01	0.962	0.142	0.145	0.463	0.488	0.471	0.193	0.105	1.14	1.26	1.03	0.776	0.573	0.984	1.06	0.862	0.717	0.935
NCI-H1299	1	0.917	1.1	0.452	0.118	0.725	0.853	0.596	0.107	0.0675	1.04	1.07	1.04	1.07	0.997	0.975	0.837	0.925	0.948	0.72
NCI-H1355	0.85	0.777	0.615	0.837	0.124	0.412	0.36	0.395	0.263	0.118	0.883	0.976	0.953	0.885	0.91	0.867	0.87	0.802	0.739	0.75
NCI-H1395	1.02	0.97	0.463	0.382	0.347	0.668	0.669	0.583	0.379	0.239	1.2	1.13	0.949	0.865	0.69	1.23	0.922	0.884	0.926	0.526
NCI-H1437	1.04	1.1	0.885	0.0922	0.101	0.57	0.446	0.416	0.271	0.0592	1.03	1.1	1.08	1.1	0.746	1.01	0.988	0.979	0.912	0.705
NCI-H1651	0.943	0.996	0.31	0.133	0.12	0.656	0.622	0.583	0.201	0.0876	1.04	0.991	0.968	0.507	0.224	0.915	0.961	0.91	0.432	0.271
